Measured values as given in patent US20230365570A1, “COMPOUNDS WITH GLUCOCORTICOID SPARING EFFECTS AND USES THEREOF” (The Regents of the University of California, priority 2020, published 2023).
pIC50: −log10 of the molar value.

Columns and labels:
[1] = test system: murine bone marrow-derived dendritic cells (BMDCs); assay: TNF-α and IP-10 induction by TLR and STING ligands in murine BMDCs; assay type: cell-based, mouse; details: BMDCs from WT and Tmem173-/- mice (FIGS. 9A-D)
Description: (§1) FIGS. 9A-9F show the partial STING dependent activity of nitrofuranylamide compounds 4, 5 and 6 and inhibition of TLR pathways.
(§2) Since the synthesized compounds were identified via assays in human cells, there was interest in verifying the potency of these compounds in murine cells. Compounds were incubated with murine bone marrow-derived dendritic cells (BM DCs) obtained from wild-type (WT) mice and STING null (Tmem173^−/−) mice as STING had been reported as the target of other nitrofuranylamides. […] To compare these compounds, the IC50 values of these compounds were assessed in dose titration studies.

mBMDCs = assay: IFNβ induced by DMXAA in mBMDCs; assay type: cell-based, mouse; details: for IFNβ induced by DMXAA: mBMDCs (FIG. 9F)
Description: as §1, §2

THP-1 cells [2] = assay: IL-1ß stimulated TNF release by THP-1 cells; assay type: cell-based, human
Description: (§3) THP-1 cells (10^5 cells/200 μL/well) and RA FLS (104/200 μL/well) were plated in 96 well plates and pre-treated with compound or vehicle for 1 h and then stimulated with either LPS (10 ng/ml), 1L-1ß (2 ng/ml) or TNF (2 ng/ml for THP-1 and 1 ng/ml for RA FLS). After 18 h of incubation, supernatants were collected and the levels of cytokines and chemokines in the culture supernatants were measured by ELISA according to the manufacturer's protocols (R&D systems, Minneapolis, MN).
(§4) The lead compounds belonging to chemotypes 1, 3, and 5 were tested for potency in suppressing chemokine and cytokine production by THP-1 cells in the presence of different inflammatory stimuli. The production of CXCL8 induced by either LPS (10 ng/ml), IL-1ß (2 ng/ml), or TNF (2 ng/ml) and TNF induced by IL-1ß (2 ng/ml) was assessed using serially diluted compounds. The compounds except 1-2 reduced the level of CXCL8 production stimulated by LPS in a dose dependent manner (FIG. 3A). However, the compounds from chemotype 5 enhanced CXCL8 release by THP-1 cells when stimulated with IL-111, or TNF (FIGS. 3B, C). […] The 1Cs0 for 1-1, 1-2 and 3-1 for IL-1ß stimulated CXCL8 release included 400, 1770, and 2020 nM, respectively, (FIG. 3C).

mice = assay: K/BxN serum induced arthritis and allodynia in mice; assay type: in vivo, mouse
Description: FIGS. 10A-10D show the in vivo activity of compound 5 in WT and STING knock-out Tmem173^−/− mice. Mice were induced with K/B×N serum on days 0 and 2 to have arthritis and related pain. Compound 5 was administered (750 nmol) IP BID on days 0-5. […] (B) These effects of compound 5 are not seen in similarly treated Tmem173−/− mice. Mechanical allodynia is measured with monofilaments in a von Frey assay and increase in pain perception by the animal is recorded as a drop in the threshold. *P<0.0001 by two-way ANOVA.

THP-1 cells [3] = assay: Cell viability by MTT assay in THP-1 cells; assay type: cell-based, human; details: for Cellular viability (% Viability compared to Veh): 10 uM (FIG. 8B)
Description: Two types of tetrazolium were used for viability assays. […] After 18 h of incubation, 0.5 mg/ml 3[4,5-dimethylthiazol-2-yl]-2,5-dipheyl tetrazolium bromide (MTT; Thermo Fisher Scientific) in assay media was added to each well at a final concentration of (0.5 mg/ml) and further incubated for 4-6 h. The absorbances at 570 and 650 nm were measured by a Tecan Infinite M200 plate reader, For RA FLS, the cells were dispersed into 96-well flat bottom plates (104/200 μL/well) and incubated overnight. The next day, RA FLS were treated with 5 μM of each compound for 18 h of incubation. Ten μl of WST-8 [2-(2-methoxy-4-nitrophenyl)-3-(4-nitrophenyl)-5-(2,4-disulfophewnyl)-2H-tetrazolium, monosodium salt] solution was added to each well and the cells were further incubated for 2-4 h. The absorbance was measured at 450 nm with Bio-Rad iMark plate reader (Bio-Rad Laboratories Inc., Hercules, CA, Unites States).

THP-1 cells [4] = assay: Combination and synergy of compounds with DEX, CXCL8 release by TNF stimulated THP-1 cells; assay type: cell-based, human
Description: Drug synergy analysis was performed using lsobologram plots which were calculated according to reported procedures to compute IC50 and determine synergism. IC50 is computed from the median effect equation. Synergism analysis is carried out using the Combination index (Cl)-isobol method. Data analysis was performed using the CompuSyn software available on combisyn.com, Detailed methodology was used as described in a prior report. Briefly, the median-effect equation is computed to obtain the linear regression for the effect of inhibitors DEX and 1−1 as Fa/Fu=(D/D50)^m, where D is the dose; Fa and Fu is the fraction of the inhibition and uninhibited response by the dose D (Fa+Fu=1); D50 is the dose producing the median effect (i.e, IC50). The constant m determines the shape of the dose-effect curve. The median-effect equation in logarithmic form is log (Fa/Fu) =m log(D)−m log (D50) which essentially represents a linear relationship between log(Fa/Fu) and log(D). […] This is followed by Cl-isobol method to quantitatively assess the synergism between these inhibitor drugs. A combination index (Cl) is estimated from dose-effect data of single and combined drug treatments. A value of C; less than one indicates synergism; Cl=1 indicates additive effect; and Cl>1 indicates antagonism. Drug interaction (synergism or antagonism) is more pronounced the further a CI value is from 1. […] The doses Dx1 and Dx2 were estimated from the median effect equation above for single drug treatments. From the median effect equation, the estimated dose (i.e., D) necessary to produce the inhibition (i.e., Fa, Fu) obtained by the combination was calculated. The results are presented as a normalized isobolograrn. A point in the isobologram represents the effect of a drug(s) treatment.
To assess whether the remaining candidate compounds would provide additional benefit to a low dose of glucocorticoid, THP-1 cells were stimulated with TNF and treated them with serially diluted compounds and 100 nM DEX (FIGS. 4A-C). […] Next whether there was an additive or synergistic effect with these three compounds and DEX was formally addressed. […] The four CXCL8 levels below the maximum plateau were used to calculate an isobologram (FIG. 5D).

THP-1 cells [5] = assay: TNF stimulated CXCL8 release by THP-1 cells; assay type: cell-based, human; details: TNF 2 ng/ml, overnight (FIG. 3B)
Description: as §3, §4

THP-1 cells [6] = assay: IL-1ß stimulated CXCL8 release by THP-1 cells; assay type: cell-based, human; details: IL-1ß 2 ng/ml, overnight (FIG. 3C)
Description: as §3, §4

THP-1 cells [7] = assay: CXCL8 production by LPS stimulated THP-1 cells (ELISA); assay type: cell-based, human; details: LPS 10 ng/ml, purchased compound, mean LPS CXCL8 201.1 pg/ml = 100%
Description: as §3
The 122 hit compounds underwent additional screening and were evaluated for their effects on cell viability and the ability to suppress production of an NF-κB-associated chemokine, CXCL8 (IL-8) by LPS stimulated THP-1 cells (FIG. 2D). The cells were also examined for viability after 24 h of stimulation by MTT assay (FIG. 2E).
Three of the eleven chemotypes were excluded based on the potential for them to be Michael acceptors, In many cases α,β-unsaturated carbonyls such as those found in these chemotypes can form adducts with thiols, especially under physiological conditions (pH=6-8), reducing the in vivo efficacy. Also, Michael acceptors are often […] IKKß inhibitors and thereby inhibit NF-KB response. […]

NF-κB = NF-κB activation assay in LPS stimulated CellSensor NF-κB-bla THP-1 reporter cells; assay type: cell-based, human; details: 5 h and 16 h time points
Description: In the presence of lactamase, CCF4 was enzymatically cleaved and excitation at 409 nm produced a blue fluorescence signal (at 450 nm), The CellSensor® NF-κB-bla THP-1 cells were dispersed in 96-well plates (5×10^4 cells/200 μL/well) and incubated for 4 h, Then the cells were treated with 5 μM of each compound and 10 ng/ml of LPS for 5 or 12 h in 5% CO2 at 37° C. After incubation, the ß-lactamase substrate mixture (prepared according to the manufacturer's protocol) was added to each well. Plates were incubated at room temperature in the dark for 2 h. Fluorescence was measured on a Tecan Infinite M200 plate reader (Tecan, Mannedorf, Switzerland) at an excitation wavelength of 405 nm and emission wavelengths of 465 and 535 nm. Emission ratios are calculated by dividing values from emission wavelength of 465 nm by those from emission wavelength of 535 nm, The response ratio was calculated as follows [(emission ratio of a test well)/average emission ratio of wells with vehicle (0.5% DMSO)] and values were normalized to the LPS control treated wells [response ratio of the compound/response ratio of LPS].
Using LPS as a primary inflammatory stimulus the effect of these compounds on NF-κB activity was evaluated at two time points to profile the kinetics of their suppression.

[8] = WT mice, 750 nmoles IP BID for 6 days

Compound | mIP-10 production induced by TLR4 (LPS), TLR7 (1V270) and STING (DMXAA) ligands [1] | mTNF-a production induced by TLR4 (LPS), TLR7 (1V270) and STING (DMXAA) ligands [1] | IFNβ induced by DMXAA (mBMDCs) | TNF release when stimulated with IL-1ß (THP-1 cells [2]; THP-1 cells) | Cellular viability (% Viability compared to Veh) (THP-1 cells [3]) | other results
O=C(Nc1cccc(C(F)(F)F)c1)c1ccc([N+](=O)[O-])o1 [Compound 5] | inhibited | inhibited | Dose-dependent inhibition | Dose-dependent inhibition | approximately 100% | Cytokine inhibition IC50, mouse cell studies (mBMDCs; mBMDCs stimulated with DMXAA, IFNβ (FIG. 9F)): nanomolar (nM) range; Cytokine inhibition IC50, human cell studies (THP-1 cells [2]; THP-1 cells stimulated with IL-1β, TNF-a (FIG. 9E)): nanomolar (nM) range; Pain or swelling in Tmem173-/- mice (mice; Tmem173-/- mice, 750 nmol IP BID): no statistically significant effect; Acute inflammation in the ankle (ankle thickness) (mice; [8]): modest effect; Mechanical allodynia (von Frey filaments) (mice; [8]): significantly reduced
CCOc1ccc(NC(=O)c2ccc([N+](=O)[O-])o2)cc1 [Compound 4] | inhibited | inhibited | Dose-dependent inhibition | Dose-dependent inhibition | approximately 100% | 
C[C@@H]1C[C@H]2[C@@H]3CCC4=CC(=O)C=C[C@]4(C)[C@@]3(F)[C@@H](O)C[C@]2(C)[C@@]1(O)C(=O)CO [DEX, dexamethasone, reference compound] |  |  |  |  |  | pIC50 (THP-1 cells [4]; Homo sapiens, TNF stimulated THP-1 cells, single agents (FIG. 5A), read-out: IC50 for TNF stimulated CXCL8 release (titration with DEX)): 6.52
CCCCNc1ncnc2c1cnn2-c1ccc(C)cc1C [Compound 1-2] |  |  |  |  |  | pIC50 (THP-1 cells [5]): 5.38; pIC50 (THP-1 cells [6]): 5.75; pIC50 (THP-1 cells [2]; THP-1 cells, IL-1ß 2 ng/ml, overnight (FIG. 3D)): 5.56; CXCL8 production. Relative to LPS (purchased) (THP-1 cells [7]): 70.1%; Effect of addition of DEX on CXCL8 production (THP-1 cells [4]; TNF 2 ng/ml stimulated THP-1 cells, serially diluted compound plus 100 nM DEX (FIGS. 4A-C)): only effective at the lower doses; Synergy with DEX, isobologram of potency ratios for CXCL8 (THP-1 cells [4]; TNF stimulated THP-1 cells, compound and DEX titrated at same molarity (FIG. 5D)): modestly synergistic; % Cellular Viability (Purchased) (THP-1 cells [3]; purchased compound): 100.1%
O=C(Nc1cc([N+](=O)[O-])ccc1Cl)c1ccc([N+](=O)[O-])o1 [Compound 6] | inhibited | inhibited | Dose-dependent inhibition | Dose-dependent inhibition | approximately 100% | 
polymyxin B |  |  |  |  |  | Inhibition of NF-κB activity (NF-κB): suppressed NF-κB activity at both timepoints
NC(=O)Nc1sc(-c2ccc(F)cc2)cc1C(N)=O [UTC, 5-(4-fluorophenyl)-2-ureidothiophene-3 carboxylic acid amide] |  |  |  |  |  | Inhibition of NF-κB activity (NF-κB): inhibited NF-κB activity at both time points
